Row | SMILES | melting point [°C]
1 | CCC1(CCSC(C)=O)C(=O)N2CCCC(C(=O)OC(C)(C)C)N2C1=O (stereo unspecified) | 82 to 84
2 | CCCc1c(C(=O)O)c(=O)cc(-c2ccccc2)n1C | 150
3 | CC(C)(C)NS(=O)(=O)c1ccc(Cl)c(CBr)c1Cl | 157
4 | CS(=O)c1ccc2nc(NC(=N)N)nc(-c3ccccc3)c2c1 (stereo unspecified) | 175 to 180
5 | CCCCCCCCc1ccc(C(=O)C(O)c2ccccc2)cc1 (stereo unspecified) | 65 to 70
6 | O=C(O)[C@H](CC(=NO)c1ccc2oc3ccccc3c2c1)NC(=O)C(F)(F)F | 128 to 130
7 | CC1(C)CCC(C)(C)c2cc(-c3cc(-c4ccc(C(=O)O)cc4)ccc3OCCCCN)ccc21 | 250
8 | CN(C)c1ccc(C=O)c([N+](=O)[O-])c1 | 115 to 116
9 | O=c1[nH]c2ccccc2n1CCN1CCN(c2cc(C(F)(F)F)ccc2O)CC1 | 158 to 160
10 | CN1CCN(c2ccc(C(=O)CCC(=O)N3CCC(c4ccc(Cl)cc4)CC3)cc2)CC1 | 152 to 153
11 | CCCC1=C(C#N)C(c2cccc(N3CCOCC3)c2)c2c[nH]nc2N1 (stereo unspecified) | 196 to 200
12 | CONC(=O)Nc1ccc(-c2sc3c(c2CN(C)C(C)c2ccccn2)c(=O)n(-c2ccccn2)c(=O)n3Cc2c(F)cccc2F)cc1 (stereo unspecified) | 143 to 144
13 | O=[N+]([O-])c1ccc(Sc2ccccc2)cc1OCc1ccccc1 | 77 to 79
14 | COCCOCOc1c(C(C)(C)C)nc(C=NO)nc1C(C)(C)C | 90 to 97
15 | O=C1NC(=O)c2ccccc2/C1=C/Nc1cccc(CN2CCCCCC2)c1 | 116 to 117
16 | CC1(C)CC(=O)CC(C)(C)N1CCCCCCN1C(C)(C)CC(=O)CC1(C)C | 151 to 152
17 | COC(=O)Cn1c(Cc2ccccc2)ccc(N)c1=O | 134 to 136
18 | O=C(CF)Cc1ccc(Cl)cc1Cl | 48 to 52
19 | CN(C(=O)CCN1CCC(C(O)(c2ccc(F)cc2)c2ccc(F)cc2)CC1)c1ccccc1 | 73 to 75
20 | Cc1ccccc1-n1c(C=Cc2ccccc2F)nc2ccsc2c1=O | 220 to 221
21 | COC(=O)c1ccc(C(C)(C)CO)cc1 | 44 to 45
22 | COc1ccc2c(c1)C=Cn1c(nnc1OC)C2 | 185 to 186
23 | CC(C)=CC(=O)On1cc(Cl)cn1 | 71
24 | COC(=O)[C@@](C)(CCC1=C(C)C(=O)C(C)=C(C)C1=O)OS(C)(=O)=O | 112 to 114
25 | Cc1c(NC(=O)c2ccc(OC[C@@H]3CCCO3)cc2)ccc2cc(CNCC3CCOCC3)[nH]c12 | 161 to 162
26 | CC(C)(C)C(NC(=O)c1ccc(I)cc1)NC(=NC#N)Nc1cccnc1 (stereo unspecified) | 180 to 183

Row | SMILES | melting point [°C]
27 | O=[N+]([O-])c1ccc(Cl)c(F)c1O | 73
28 | CC(COc1ccc2ccc(N)nc2n1)CN(C)C (stereo unspecified) | 108
29 | CCOC(=O)c1c(C)nc2c(c1N)c1c(n2Cc2ccc(OC)cc2)CCCC1 | 108 to 110
30 | CN1CCC(NC2c3ccccc3Oc3ccccc32)CC1 | 96.5 to 98
31 | CCNc1nc(=O)n(Cc2ccc(OC)c(OC3CCCC3)c2)c2nc(C(C)C)[nH]c12 | 110 to 115
32 | C=Cc1ccc(-c2ncccc2S(=O)(=O)Nc2ncc(C)nc2OC)cc1 | 110 to 112
33 | CC(C)C1N(CC(N)=O)C(=O)CN1C(=O)CCl (stereo unspecified) | 163
34 | O=C1N(Cc2cnc(N3CCCCC3)s2)c2ccccc2C12COc1cc3c(cc12)OCO3 (stereo unspecified) | 195 to 197
35 | O=C(CCl)Nc1csc(NC(=O)CCl)n1 | 188 to 192
36 | CC(=O)C(Cl)=NNc1ccc([N+](=O)[O-])cc1 | 180 to 183
37 | CCOc1cc(Cn2cc(CCC(=O)O)c(-c3ccccc3)c2)cc(OCc2csc(-c3cccs3)n2)c1 | 104 to 105
38 | O=C(NCCCCOc1ccc(-n2ccnc2)cc1)c1ccc(F)cc1 | 122 to 123
39 | CCCc1c(OCCCOc2ccccc2)ccc2c1OC(CCC(=O)O)(CCC(=O)O)CC2=O | 162
40 | CS(=O)(=O)c1ccc(OCC2CCN(CC3CC3)CC2)cc1 | 134 to 135
41 | COc1cc(C2=C(c3cn(C)c4ccccc34)C(=O)NC2=O)cc(OC)c1OC | 187
42 | c1ccc2c(c1)nc1n2CCC(CN2CCNCC2)S1 (stereo unspecified) | 151 to 153
43 | CCC(C)(C)c1cc(-c2ccc(C=C3SC(=O)NC3=O)cn2)cc2nc(C)oc12 | 312
44 | Cc1cc(-c2cnn3c(C(F)(F)F)cc(-c4ccc(OCC(F)(F)F)c(C(F)(F)F)c4)nc23)cc(C)n1 | 229
45 | COc1ccc(C(=O)CC(=O)C(F)(F)F)cc1OC | 87 to 89
46 | Cc1[nH]cnc1CSCCN=CNS(=O)(=O)c1ccccc1 | 48 to 51
47 | O=C(O)Cc1c(Cl)nc(-c2ccccc2)n1Cc1ccccc1F | 144 to 146
48 | COc1cc(C=CC(=O)Nc2c(C)nc3c(C)cc(C)cc3c2-c2ccccc2Cl)cc(OC)c1OC(C)=O | 225 to 226
49 | CC(C)(C)OC(=O)N1CC(CCl)c2c1cc(O)c1ncccc21 (stereo unspecified) | 148 to 149
50 | NS(=O)(=O)c1cc(C(=O)O)cc([N+](=O)[O-])c1NCCc1ccccc1 | 208
51 | O=C(CCOc1cccc(-c2ccccc2)c1)NO | 113 to 116
52 | O=C=Nc1ccc2c(c1)C(=O)OC2=O | 80 to 82

Row | SMILES | melting point [°C]
53 | O=C(O)Cc1ccc(NC(=O)C(COC2CCCCO2)NS(=O)(=O)c2ccc(Cl)c([N+](=O)[O-])c2)cc1 (racemic) | 131 to 140
54 | COC=C(C(=O)OC)n1ccc2ccc(-c3csc(-c4ccccc4)n3)cc21 | 145 to 146
55 | N#Cc1ccc2c(OCc3ccccc3)cc(C(=O)O)cc2c1 | 235
56 | O=Cc1c(OCc2ccccc2)ccc2ccccc12 | 120 to 121
57 | CC(C)C1(C)NC(c2ccccc2C(=O)N(C)C)=NC1=O (stereo unspecified) | 144 to 146
58 | O=C1N(Cc2ccncn2)c2ccccc2C12COc1cc3c(cc12)CCO3 (stereo unspecified) | 158 to 160
59 | Nc1ccccc1C1=NN(c2ccc(Cl)cc2)C(=O)C1 | 199 to 201
60 | N#CC(C(=O)O)=C(c1ccc(F)cc1)c1ccc(F)cc1 | 180 to 181
61 | CN(Cc1ccc(NC(=O)C2=Cc3cc(-c4ccc(OC(F)(F)F)cc4)ccc3OCC2)cc1)C1CCOCC1 | 187 to 188
62 | O=c1ccc2ccc3ccc(Br)cc3c(=O)c2[nH]1 | 268 to 269
63 | CCNC(=O)c1sc(SC)cc1[Si](C)(C)C | 58 to 61
64 | O=C(CN1CCNCC1)Cn1c2ccc(Br)cc2c2cc(Br)ccc21 | 175
65 | COc1ccc(N2CCOCC2)c2sc(NC(=O)N(C)C3CCC(C(F)(F)F)CC3)nc12 (stereo unspecified) | 157 to 167
66 | COC(=O)C(Cc1cc(OC)cc(OC)c1)c1ccc(O)cc1 (stereo unspecified) | 63 to 65
67 | CCOC(=O)c1c(CN(CC)CC)nc2sc3c(c2c1-c1ccc(OC)c(OC)c1)CCN=C3 | 118 to 120
68 | Fc1ccc(-c2cc(-c3ccccc3)c3cc(Cl)ccc3n2)cc1 | 141 to 142
69 | CCC(C)CNc1cccc(-c2ccnc3c(C(=O)c4cccs4)cnn23)c1 (stereo unspecified) | 210 to 212
70 | COC(=O)CCc1cc(C(=O)c2cccc(C#N)c2)ccc1OCCCCC=Cc1ccc(OC)cc1 | 65 to 67
71 | O=C(CCNC(=O)[C@H](Cc1ccccc1)OP(=O)(O)CCCCc1ccccc1)OCc1ccccc1 | 64 to 70
72 | CN(Cc1ccccc1)c1cc(Oc2cccc(C(F)(F)F)c2)nc(C(=O)O)c1 | 80 to 82
73 | O=C(c1ccccc1)N1CCC(O)CC1 | 91.5 to 92
74 | c1cc(-c2ccnc3nccn23)ccn1 | 244 to 245
75 | COc1cc(-c2ccc(O)c(C(C)(C)C)c2)cc(C=C2SC(N(C)C)=NC2=O)c1O | 272 to 274
76 | Cc1cc(Cc2ccccc2)c(NCc2ccccn2)c(=O)n1CC(=O)O | 63
77 | Clc1ccc(N2CCN(CCCc3c4c(nn3-c3ccc(Cl)cc3)CCCC4)CC2)cc1 | 129 to 131
78 | O=C1Cc2cccc(S(=O)c3ccccc3Cl)c2N1 (stereo unspecified) | 243 to 245

Row | SMILES | melting point [°C]
79 | CCCCc1nc2cnccc2n1Cc1ccc(C(=O)O)cc1 | 210
80 | COC(=O)CCCc1cc2nc(Cl)ccc2n1S(=O)(=O)c1cccc(C(F)(F)F)c1 | 97
81 | CCOC(=O)c1c(C)cc(NC(C)=O)c(C(=O)O)c1C | 170 to 171
82 | C=CC1C2OCC(O2)C(OCc2ccccc2)C1O (stereo unspecified) | 88 to 91
83 | CS(=O)(=O)c1ccccc1OC(F)(F)F | 44 to 46
84 | O=c1nc(-c2ccccc2)c2cc3c(cc2[nH]1)OCO3 | 351 to 354
85 | Cc1ccc(COc2ccccc2C=C2CCCCC2N2CCC2)cc1 (stereo unspecified) | 88 to 90
86 | Cc1c[nH]c(=O)nc1-n1cncn1 | 258 to 264
87 | CS(=O)(=O)c1cc(S(N)(=O)=O)sc1CO | 175 to 178
88 | CN(C)C=CC(=O)c1cccc(N(C)C(=O)C2CCC2)c1 | 117 to 119
89 | Cc1cccc(C)c1-c1cccc2c1CC(CN)O2 (stereo unspecified) | > 250
90 | COC(=O)Cc1ccc(Sc2ccccc2C(=O)N(C)C)c([N+](=O)[O-])c1 | 124 to 125
91 | O=C1Nc2ccccc2CCC1NC(CCc1ccccc1)C(=O)OCc1ccccc1 (stereo unspecified) | 139 to 141
92 | CC(=O)c1ccc(CNC(=O)C(F)(F)F)s1 | 83 to 84
93 | COC(=O)c1cccc(-c2c(C)c(NC(=O)CC(C)(C)C)c(C)c3c2OCC3c2ccc(C(C)C)cc2)c1 (stereo unspecified) | 206 to 208
94 | O=C(O)c1ccsc1Cl | 166 to 167
95 | Cc1ccc(-c2ccc(C(=O)O)cc2)c(N)c1 | 273 to 278
96 | CS(=O)(=O)N1CCC(CCC(=O)c2ccc3c(c2)CCN(Cc2ccccc2)CC3)CC1 | 134 to 137
97 | CCNC(=O)c1ccc(-c2ccc3nnn(C(C)(C)c4ccc5ncccc5c4)c3n2)cc1F | 132 to 135
98 | Cn1cc(-c2ccc3nc(NC(=O)c4ccc(C(C)(C)C)nc4)cn3c2)cn1 | 228 to 230
99 | CO/C(=C\C=C\c1cc2cc(Cl)c(Cl)cc2[nH]1)C(=O)O | 249 to 250
100 | C[C@H](NC(=O)CC1CCC(=O)CC1)c1ccccc1 | 110 to 151
101 | CS(=O)(=O)C(c1ccc(Cl)cc1)c1ccc(Cl)cc1 | 93 to 94.5
